Columns and labels:
Assay type in all cases: functional
[1] = system: P388; assay: Cytotoxicity against mouse P388 cells
[2] = system: A549; assay: Cytotoxicity against human A549 cells; settings: read-out: ED50 (the source's name)
[3] = system: MCF7; assay: Cytotoxicity against human MCF7 cells; settings: read-out: ED50 (the source's name)

CCCCCCCCC[C@@H](O)[C@@H](O)[C@@H]1CC[C@@H]([C@@H]2CC[C@@H]([C@@H](O)CCCCCCCCCCCCC3=CC(C)OC3=O)O2)O1 (stereo partly drawn) [ROLLINICIN]
ED50 [1]: 2.9 ×10⁻⁸ ug/ml

CCCCCCCCCC[C@@H](O)[C@@H]1CC[C@H]([C@H]2CC[C@@H]([C@@H](O)CCCCCCCCCCC(O)CC3=CC(C)OC3=O)O2)O1 (stereo partly drawn)
EC50 [2]: < 1 ng/mL | EC50 [3]: < 1 ng/mL
